Assay results from ChEMBL document CHEMBL1201862, “PubChem BioAssay data set” (2004).
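Method: 48-hour compound exposure of cells in 96-well plates, five concentrations, linear interpolation of endpoints. GI50: concentration for 50% inhibition of growth.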 The source made the active and inactive calls. Cut-off read from the data, not from the text of the source: active = GI50 up to about 1.1 µM and inactive = higher.

Columns and labels:
Test in all cases: inhibition of tumour cell growth, NCI panel, 48 h
HT-29 = tested on: HT-29
SF-295 = tested on: SF-295
OVCAR-4 = tested on: OVCAR-4
MDA-N = tested on: MDA-N
UO-31 = tested on: UO-31
MCF7 = tested on: MCF7
U-251 = tested on: U-251
SK-MEL-5 = tested on: SK-MEL-5
BT-549 = tested on: BT-549
MOLT-4 = tested on: MOLT-4
SN12C = tested on: SN12C
K562 = tested on: K562
SNB-19 = tested on: SNB-19
Hs-578T = tested on: Hs-578T
OVCAR-8 = tested on: OVCAR-8
EKVX = tested on: EKVX
OVCAR-3 = tested on: OVCAR-3
SR = tested on: SR
RPMI-8226 = tested on: RPMI-8226
HCC 2998 = tested on: HCC 2998

Measured: GI50

NS(=O)(=O)c1ccc(-c2ccc([As](=O)(O)O)cc2)cc1
inactive: HT-29 > 100 µM | SF-295 > 100 µM | OVCAR-4 > 100 µM | MDA-N > 100 µM | UO-31 > 100 µM | MCF7 > 100 µM | U-251 > 100 µM | SK-MEL-5 > 100 µM | BT-549 > 100 µM | MOLT-4 > 100 µM | SN12C > 100 µM | K562 > 100 µM | SNB-19 > 100 µM | Hs-578T > 100 µM | OVCAR-8 > 100 µM | EKVX > 100 µM | OVCAR-3 > 100 µM | SR > 100 µM | RPMI-8226 > 100 µM

Brc1ccc(C2CC3(c4ccccc4)ON=C(c4ccccc4)N3c3ccccc3S2)cc1 (stereo not drawn)
inactive: HT-29 9.16 µM | SF-295 > 100 µM | OVCAR-4 > 100 µM | MDA-N > 100 µM | HCC 2998 > 100 µM | UO-31 > 100 µM | MCF7 > 100 µM | U-251 > 100 µM | SK-MEL-5 > 100 µM | BT-549 > 100 µM | MOLT-4 > 100 µM | SN12C > 100 µM | K562 > 100 µM | SNB-19 > 100 µM | Hs-578T > 100 µM | OVCAR-8 > 100 µM | EKVX > 100 µM | OVCAR-3 > 100 µM | SR 28.1 µM

COC(=O)NC(Nc1ccc(C)cc1)(C(F)(F)F)C(F)(F)F
inactive: HT-29 > 100 µM | SF-295 > 100 µM | MDA-N > 100 µM | HCC 2998 > 100 µM | UO-31 18.3 µM | MCF7 > 100 µM | U-251 > 100 µM | SK-MEL-5 > 100 µM | BT-549 > 100 µM | MOLT-4 > 100 µM | SN12C > 100 µM | K562 > 100 µM | SNB-19 > 100 µM | Hs-578T > 100 µM | OVCAR-8 > 100 µM | EKVX > 100 µM | OVCAR-3 > 100 µM | SR 61.2 µM | RPMI-8226 > 100 µM

Cc1ccnc2nc3[nH]c4ccccc4c3cc12
inactive: HT-29 > 100 µM | SF-295 > 100 µM | OVCAR-4 > 100 µM | MDA-N > 100 µM | HCC 2998 > 100 µM | UO-31 > 100 µM | MCF7 > 100 µM | U-251 39.1 µM | SK-MEL-5 > 100 µM | BT-549 48 µM | MOLT-4 > 100 µM | SN12C > 100 µM | K562 > 100 µM | Hs-578T > 100 µM | OVCAR-8 66.8 µM | EKVX > 100 µM | OVCAR-3 > 100 µM | SR 71.1 µM | RPMI-8226 > 100 µM

O=C(N/N=C1\C(=O)Nc2c(Cl)cc(Cl)cc21)C(=O)Nc1cccc(C(F)(F)F)c1
inactive: HT-29 > 100 µM | SF-295 > 100 µM | OVCAR-4 > 100 µM | MDA-N 54 µM | HCC 2998 > 100 µM | UO-31 > 100 µM | MCF7 > 100 µM | U-251 97.5 µM | SK-MEL-5 > 100 µM | BT-549 > 100 µM | MOLT-4 85.1 µM | SN12C > 100 µM | SNB-19 > 100 µM | Hs-578T > 100 µM | OVCAR-8 > 100 µM | EKVX > 100 µM | OVCAR-3 > 100 µM | SR 34.4 µM

CC#C[C@]1(O)CCC2[C@@H]3CCC4=CC(=O)CCC4=C3[C@@H](c3ccc(N(C)C)cc3)C[C@@]21C (stereo partly drawn)
inactive: HT-29 12.9 µM | SF-295 10.7 µM | OVCAR-4 6.37 µM | MDA-N 11.8 µM | UO-31 8.2 µM | MCF7 5.27 µM | U-251 12.5 µM | SK-MEL-5 10.9 µM | BT-549 16.6 µM | SN12C 21.8 µM | K562 20.9 µM | SNB-19 35 µM | Hs-578T 13 µM | OVCAR-8 26.5 µM | EKVX 13.2 µM | OVCAR-3 8.28 µM | SR 14.1 µM | RPMI-8226 2.02 µM

Cc1ccc(O)c(C2=NNC(c3cccc(Br)c3)C2)c1 (stereo not drawn)
inactive: HT-29 64.1 µM | SF-295 61 µM | MDA-N 28.8 µM | HCC 2998 60.8 µM | UO-31 51.5 µM | MCF7 33.8 µM | U-251 43.7 µM | SK-MEL-5 71.3 µM | BT-549 > 100 µM | MOLT-4 32.8 µM | SN12C 52.6 µM | K562 38 µM | SNB-19 23 µM | Hs-578T 37.3 µM | OVCAR-8 98.9 µM | EKVX 35.9 µM | OVCAR-3 62.2 µM | SR 27.8 µM | RPMI-8226 21.9 µM

CC(C)(C)c1cc(C(O)(C(=O)O)C(=O)O)cc(C(C)(C)C)c1O
inactive: HT-29 > 100 µM | SF-295 > 100 µM | OVCAR-4 > 100 µM | MDA-N > 100 µM | UO-31 > 100 µM | MCF7 > 100 µM | U-251 > 100 µM | SK-MEL-5 > 100 µM | BT-549 > 100 µM | MOLT-4 > 100 µM | SN12C > 100 µM | K562 > 100 µM | SNB-19 > 100 µM | Hs-578T > 100 µM | OVCAR-8 > 100 µM | EKVX > 100 µM | OVCAR-3 > 100 µM | SR > 100 µM | RPMI-8226 > 100 µM

CC1(C)C/N=C/C(C)(OCc2ccccc2)C(=O)NC(C)(C)C/N=C/C(C)(OCc2ccccc2)C(=O)N1 (stereo not drawn)
inactive: HT-29 > 10 µM | SF-295 > 10 µM | MDA-N > 10 µM | HCC 2998 > 10 µM | UO-31 > 10 µM | MCF7 > 10 µM | U-251 > 10 µM | SK-MEL-5 > 10 µM | BT-549 > 10 µM | MOLT-4 > 10 µM | SN12C > 10 µM | K562 > 10 µM | SNB-19 > 10 µM | Hs-578T > 10 µM | OVCAR-8 > 10 µM | EKVX > 10 µM | OVCAR-3 > 10 µM | SR > 10 µM | RPMI-8226 > 10 µM

CC(C)(C)OC(=O)NC1CC=CCC1NC(=O)OC(C)(C)C (stereo not drawn)
inactive: HT-29 > 100 µM | SF-295 > 100 µM | OVCAR-4 > 100 µM | MDA-N > 100 µM | HCC 2998 > 100 µM | UO-31 > 100 µM | MCF7 > 100 µM | U-251 > 100 µM | SK-MEL-5 97.7 µM | BT-549 > 100 µM | MOLT-4 > 100 µM | SN12C > 100 µM | K562 97.9 µM | SNB-19 > 100 µM | Hs-578T > 100 µM | OVCAR-8 > 100 µM | OVCAR-3 > 100 µM | SR > 100 µM | RPMI-8226 > 100 µM

O=C(NCC(C(=O)OCc1ccccc1)C(=O)OCc1ccccc1)OCc1ccccc1
inactive: HT-29 > 100 µM | SF-295 > 100 µM | MDA-N > 100 µM | HCC 2998 > 100 µM | UO-31 47.9 µM | MCF7 49.3 µM | U-251 85.7 µM | SK-MEL-5 35.9 µM | BT-549 38.8 µM | MOLT-4 19.2 µM | SN12C > 100 µM | K562 60.1 µM | SNB-19 > 100 µM | Hs-578T > 100 µM | OVCAR-8 > 100 µM | EKVX 72.3 µM | OVCAR-3 > 100 µM | SR 37.9 µM | RPMI-8226 > 100 µM

CCN(CC)CCC1(C(=O)OC)SCCc2ccc(C)cc21 (stereo not drawn)
inactive: SF-295 > 100 µM | OVCAR-4 > 100 µM | MDA-N > 100 µM | HCC 2998 > 100 µM | UO-31 > 100 µM | MCF7 > 100 µM | U-251 > 100 µM | SK-MEL-5 > 100 µM | BT-549 > 100 µM | MOLT-4 > 100 µM | SN12C > 100 µM | K562 > 100 µM | SNB-19 > 100 µM | Hs-578T > 100 µM | OVCAR-8 > 100 µM | EKVX > 100 µM | OVCAR-3 > 100 µM | SR > 100 µM | RPMI-8226 > 100 µM

O=c1cc(N2CCOCC2)[nH]c(=O)n1-c1cccc(C(F)(F)F)c1
inactive: HT-29 > 100 µM | SF-295 > 100 µM | OVCAR-4 > 100 µM | MDA-N > 100 µM | HCC 2998 > 100 µM | UO-31 > 100 µM | MCF7 > 100 µM | U-251 64.7 µM | SK-MEL-5 > 100 µM | BT-549 > 100 µM | MOLT-4 > 100 µM | SN12C > 100 µM | K562 > 100 µM | Hs-578T > 100 µM | OVCAR-8 > 100 µM | EKVX > 100 µM | OVCAR-3 > 100 µM | SR > 100 µM

S=C1N(/N=C/c2c3ccccc3cc3ccccc23)C(=N\c2ccccc2)/C(=N/c2ccccc2)N1c1ccccc1
inactive: HT-29 > 100 µM | SF-295 > 100 µM | MDA-N > 100 µM | HCC 2998 > 100 µM | UO-31 > 100 µM | MCF7 > 100 µM | U-251 > 100 µM | SK-MEL-5 > 100 µM | BT-549 > 100 µM | MOLT-4 > 100 µM | SN12C > 100 µM | K562 > 100 µM | SNB-19 > 100 µM | Hs-578T > 100 µM | OVCAR-8 > 100 µM | EKVX > 100 µM | OVCAR-3 > 100 µM | SR > 100 µM | RPMI-8226 > 100 µM
